From publication PMC5218480 (PLoS ONE, 2017) come the findings set out here.

The test system of the assay is MV-4-11 cells. As to the kind of experiment: Gene expression microarray analysis (Affymetrix PrimeView) and GSEA. The assay is classed as cell-based, human. Set-up: RFU PODN (11730768_x_at) / Fold change /veh PODN (11730768_x_at) / RFU LINC00158 (11744669_a_at) / Fold change /veh LINC00158 (11744669_a_at) / RFU DUSP10 (11751237_a_at) / Fold change /veh DUSP10 (11751237_a_at) / RFU ID3 (11757404_x_at) / Fold change /veh ID3 (11757404_x_at) / RFU PLEKHG5 (11737974_s_at) / Fold change /veh PLEKHG5 (11737974_s_at) / RFU LRRC4B (11730491_at) / Fold change /veh LRRC4B (11730491_at) / RFU GIMAP4 (11747438_a_at) / Fold change /veh GIMAP4 (11747438_a_at) / RFU KRT8 (11758183_x_at) / Fold change /veh KRT8 (11758183_x_at) / RFU CNN1 (11734310_a_at) / Fold change /veh CNN1 (11734310_a_at) / RFU VPS37D (11726825_at) / Fold change /veh VPS37D (11726825_at) / RFU C10orf10 (11716522_x_at) / Fold change /veh C10orf10 (11716522_x_at) / RFU KIR2DL2 /// KIR2DL4 /// KIR2DL5A /// KIR2DL5B /// KIR2DS1 /// KIR2DS2 /// KIR2DS3 /// KIR2DS4 /// KIR3DL3 /// KIR3DL3 /// KIR3DS1 (11738374_at) / Fold change /veh KIR2DL2 /// KIR2DL4 /// KIR2DL5A /// KIR2DL5B /// KIR2DS1 /// KIR2DS2 /// KIR2DS3 /// KIR2DS4 /// KIR3DL3 /// KIR3DL3 /// KIR3DS1 (11738374_at) / RFU C1QL1 (11718748_at) / Fold change /veh C1QL1 (11718748_at) / RFU TMPRSS4 (11747572_a_at) / Fold change /veh TMPRSS4 (11747572_a_at) / RFU HAMP (11756126_x_at) / Fold change /veh HAMP (11756126_x_at) / RFU RNFT2 (11725882_a_at) / Fold change /veh RNFT2 (11725882_a_at) / RFU NR4A2 (11747474_a_at) / Fold change /veh NR4A2 (11747474_a_at) / RFU ABCC12 (11746883_a_at) / Fold change /veh ABCC12 (11746883_a_at) / RFU TMEM136 (11760407_x_at) / Fold change /veh TMEM136 (11760407_x_at) / RFU CLDN22 /// WWC2 (11732394_at) / Fold change /veh CLDN22 /// WWC2 (11732394_at) / RFU HLA-DPB1 (11760878_x_at) / Fold change /veh HLA-DPB1 (11760878_x_at) / RFU SPINT1 (11716480_a_at) / Fold change /veh SPINT1 (11716480_a_at) / RFU GAP43 (11754022_s_at) / Fold change /veh GAP43 (11754022_s_at) / RFU A4GNT (11735810_at) / Fold change /veh A4GNT (11735810_at) / RFU PRB3 (11715151_x_at) / Fold change /veh PRB3 (11715151_x_at) / RFU TUBB4B (11761932_at) / Fold change /veh TUBB4B (11761932_at) / RFU CAPN14 (11732068_a_at) / Fold change /veh CAPN14 (11732068_a_at) / RFU TMCC2 (11721928_a_at) / Fold change /veh TMCC2 (11721928_a_at) / RFU IRGQ (11745062_a_at) / Fold change /veh IRGQ (11745062_a_at) / RFU FAM174B (11720279_a_at) / Fold change /veh FAM174B (11720279_a_at) / RFU TMPRSS4 (11748680_a_at) / Fold change /veh TMPRSS4 (11748680_a_at) / RFU FAM212B (11763350_a_at) / Fold change /veh FAM212B (11763350_a_at) / RFU PLEKHG5 (11743358_a_at) / Fold change /veh PLEKHG5 (11743358_a_at) / RFU ZSCAN30 (11745921_a_at) / Fold change /veh ZSCAN30 (11745921_a_at) / RFU CMKLR1 (11741424_a_at) / Fold change /veh CMKLR1 (11741424_a_at) / RFU LOC101060620 /// MAPK8IP1 (11723275_at) / Fold change /veh LOC101060620 /// MAPK8IP1 (11723275_at) / RFU SPTSSB (11747773_x_at) / Fold change /veh SPTSSB (11747773_x_at) / RFU PRSS12 (11739890_at) / Fold change /veh PRSS12 (11739890_at) / RFU BIN1 (11741810_x_at) / Fold change /veh BIN1 (11741810_x_at) / RFU WNT11 (11732464_a_at) / Fold change /veh WNT11 (11732464_a_at) / RFU C10orf10 (11716521_a_at) / Fold change /veh C10orf10 (11716521_a_at) / RFU C5orf56 (11738089_at) / Fold change /veh C5orf56 (11738089_at) / RFU CYB561 (11721691_x_at) / Fold change /veh CYB561 (11721691_x_at) / RFU ANKRD19P (11752326_a_at) / Fold change /veh ANKRD19P (11752326_a_at) / RFU OR2T12 /// OR2T33 /// OR2T8 (11738714_s_at) / Fold change /veh OR2T12 /// OR2T33 /// OR2T8 (11738714_s_at) / RFU VCAN (11748164_a_at) / Fold change /veh VCAN (11748164_a_at) / RFU JSRP1 (11732532_at) / Fold change /veh JSRP1 (11732532_at) / RFU KRTAP10-11 (11738290_x_at) / Fold change /veh KRTAP10-11 (11738290_x_at) / RFU MYO3A (11730013_a_at) / Fold change /veh MYO3A (11730013_a_at) / RFU EBF3 (11725865_a_at) / Fold change /veh EBF3 (11725865_a_at) / RFU CAMK2N1 (11719241_x_at) / Fold change /veh CAMK2N1 (11719241_x_at) / RFU C5orf56 (11738088_a_at) / Fold change /veh C5orf56 (11738088_a_at) / RFU OLFML3 (11715873_a_at) / Fold change /veh OLFML3 (11715873_a_at) / RFU LOC100653217 /// NTM (11731650_a_at) / Fold change /veh LOC100653217 /// NTM (11731650_a_at) / RFU MAPK11 (11762145_a_at) / Fold change /veh MAPK11 (11762145_a_at) / RFU FIZ1 (11724087_x_at) / Fold change /veh FIZ1 (11724087_x_at) / RFU OASL (11726364_x_at) / Fold change /veh OASL (11726364_x_at) / RFU SOX15 (11748057_x_at) / Fold change /veh SOX15 (11748057_x_at) / RFU CD79A (11719716_a_at) / Fold change /veh CD79A (11719716_a_at) / RFU HIST1H1D (11736915_at) / Fold change /veh HIST1H1D (11736915_at) / RFU CASKIN2 (11723855_a_at) / Fold change /veh CASKIN2 (11723855_a_at) / RFU LOC730098 (11760151_x_at) / Fold change /veh LOC730098 (11760151_x_at) / RFU OR4N2 (11742367_at) / Fold change /veh OR4N2 (11742367_at) / RFU PRRT2 (11749266_a_at) / Fold change /veh PRRT2 (11749266_a_at) / RFU SNX32 (11753110_a_at) / Fold change /veh SNX32 (11753110_a_at) / RFU CDHR5 (11726645_a_at) / Fold change /veh CDHR5 (11726645_a_at) / RFU RCAN1 (11760418_a_at) / Fold change /veh RCAN1 (11760418_a_at) / RFU FAM167A (11723789_a_at) / Fold change /veh FAM167A (11723789_a_at) / RFU FAM26E (11764081_at) / Fold change /veh FAM26E (11764081_at) / RFU ISYNA1 (11749810_s_at) / Fold change /veh ISYNA1 (11749810_s_at) / RFU ACY1 (11761880_at) / Fold change /veh ACY1 (11761880_at) / RFU 11764098_at / Fold change /veh 11764098_at / RFU SAMD14 (11745864_x_at) / Fold change /veh SAMD14 (11745864_x_at) / RFU NPB (11741838_a_at) / Fold change /veh NPB (11741838_a_at) / RFU TMPRSS6 (11731388_a_at) / Fold change /veh TMPRSS6 (11731388_a_at) / RFU KRTAP10-2 (11738614_at) / Fold change /veh KRTAP10-2 (11738614_at) / RFU ARHGAP8 /// PRR5-ARHGAP8 (11727945_x_at) / Fold change /veh ARHGAP8 /// PRR5-ARHGAP8 (11727945_x_at) / RFU KRTAP5-7 /// NADSYN1 (11734609_at) / Fold change /veh KRTAP5-7 /// NADSYN1 (11734609_at) / RFU RASL12 (11751679_a_at) / Fold change /veh RASL12 (11751679_a_at) / RFU CDKN2B (11736163_a_at) / Fold change /veh CDKN2B (11736163_a_at) / RFU PRF1 (11729649_at) / Fold change /veh PRF1 (11729649_at) / RFU, ZNF638 /// ZNF638-IT1 / Fold change vs veh, ZNF638 /// ZNF638-IT1 / RFU, PANK3 / Fold change vs veh, PANK3 / RFU, SH3YL1 / Fold change vs veh, SH3YL1 / RFU, ZEB2 / Fold change vs veh, ZEB2 / RFU, NRIP1 / Fold change vs veh, NRIP1 / RFU, PTTG1IP / Fold change vs veh, PTTG1IP / RFU, CAPN2 / Fold change vs veh, CAPN2 / RFU, MED14 / Fold change vs veh, MED14 / RFU, SNORA58 / Fold change vs veh, SNORA58 / RFU, C1orf63 / Fold change vs veh, C1orf63 / RFU, LRRFIP1 / Fold change vs veh, LRRFIP1 / RFU, NDUFAF7 / Fold change vs veh, NDUFAF7 / RFU, SLC12A2 / Fold change vs veh, SLC12A2 / RFU, IBTK / Fold change vs veh, IBTK / RFU, ESF1 / Fold change vs veh, ESF1 / Fold change vs veh, TMEM50B / RFU, TAOK1 / Fold change vs veh, TAOK1 / RFU, ACBD3 / Fold change vs veh, ACBD3 / RFU, TMA16 / Fold change vs veh, TMA16 / RFU, RWDD3 / Fold change vs veh, RWDD3 / RFU, BCAT1 / Fold change vs veh, BCAT1 / RFU, EDEM3 / Fold change vs veh, EDEM3 / RFU, TMEM33 / Fold change vs veh, TMEM33 / RFU, WDR75 / Fold change vs veh, WDR75 / RFU, AHCTF1 / Fold change vs veh, AHCTF1 / RFU, TFRC / Fold change vs veh, TFRC / RFU, ZDHHC17 / Fold change vs veh, ZDHHC17 / RFU, NOM1 / Fold change vs veh, NOM1 / RFU, ARL8B / Fold change vs veh, ARL8B / RFU, ZBTB11 / Fold change vs veh, ZBTB11 / RFU, TAMM41 / Fold change vs veh, TAMM41 / RFU, KIAA1704 /// LOC100996395 / Fold change vs veh, KIAA1704 /// LOC100996395 / RFU, ING1 / Fold change vs veh, ING1 / RFU, TRMT61B / Fold change vs veh, TRMT61B / RFU, FUBP3 / Fold change vs veh, FUBP3 / RFU, TP53 / Fold change vs veh, TP53 / RFU, TNKS2 / Fold change vs veh, TNKS2 / RFU, ZFP14 / Fold change vs veh, ZFP14 / RFU, ACTR2 / Fold change vs veh, ACTR2 / RFU, PPP3R1 / Fold change vs veh, PPP3R1 / RFU, PIK3R1 / Fold change vs veh, PIK3R1 / RFU, HNRNPA1 / Fold change vs veh, HNRNPA1 / RFU, RNF170 / Fold change vs veh, RNF170 / RFU, ZNF28 / Fold change vs veh, ZNF28 / RFU, RNGTT / Fold change vs veh, RNGTT / RFU, OGT / Fold change vs veh, OGT / RFU, BRD1 / Fold change vs veh, BRD1 / RFU, MARS / Fold change vs veh, MARS / RFU, ZNF655 / Fold change vs veh, ZNF655 / RFU, FAHD1 / Fold change vs veh, FAHD1 / RFU, BDP1 / Fold change vs veh, BDP1 / RFU, LRRCC1 / Fold change vs veh, LRRCC1 / RFU, ARID1A / Fold change vs veh, ARID1A / RFU, ZNF146 / Fold change vs veh, ZNF146 / RFU, ZNF330 / Fold change vs veh, ZNF330 / RFU, GPN3 / Fold change vs veh, GPN3 / RFU, C9orf123 / Fold change vs veh, C9orf123 / RFU, N4BP2L2 / Fold change vs veh, N4BP2L2 / RFU, ARFIP1 / Fold change vs veh, ARFIP1 / RFU, FAM179B / Fold change vs veh, FAM179B / RFU, BCL10 / Fold change vs veh, BCL10 / RFU, UHRF1BP1L / Fold change vs veh, UHRF1BP1L / RFU, BET1 / Fold change vs veh, BET1 / RFU, CNOT2 / Fold change vs veh, CNOT2 / RFU, ZNF268 / Fold change vs veh, ZNF268 / Fold change vs veh, ZNF507 / RFU, DGCR2 / Fold change vs veh, DGCR2 / RFU, WDSUB1 / Fold change vs veh, WDSUB1 / Fold change vs veh, HSP90B1 /// MIR3652 / RFU, ADSS / Fold change vs veh, ADSS / RFU, GK / Fold change vs veh, GK / RFU, ZNF148 / Fold change vs veh, ZNF148 / RFU, TAF9 / Fold change vs veh, TAF9 / RFU, SLC1A5 / Fold change vs veh, SLC1A5 / RFU, SLMO2 / Fold change vs veh, SLMO2 / RFU, ABCC4 / Fold change vs veh, ABCC4 / RFU, LOC101060439 /// RAP1B / Fold change vs veh, LOC101060439 /// RAP1B / RFU, RFX7 / Fold change vs veh, RFX7 / RFU, GTPBP10 / Fold change vs veh, GTPBP10 / RFU, CNEP1R1 / Fold change vs veh, CNEP1R1 / RFU, BIVM-ERCC5 /// ERCC5 / Fold change vs veh, BIVM-ERCC5 /// ERCC5 / RFU, ILF3 / Fold change vs veh, ILF3 / RFU 11762660_at / Fold change /veh 11762660_at / RFU VCAN (11757783_s_at) / Fold change /veh VCAN (11757783_s_at) / RFU DDX43 (11728927_at) / Fold change /veh DDX43 (11728927_at) / RFU KRT8 (11758188_x_at) / Fold change /veh KRT8 (11758188_x_at) / RFU NKD1 (11759106_at) / Fold change /veh NKD1 (11759106_at) / RFU SRD5A1 (11742802_a_at) / Fold change /veh SRD5A1 (11742802_a_at) / RFU TPSAB1 /// TPSB2 (11721975_s_at) / Fold change /veh TPSAB1 /// TPSB2 (11721975_s_at) / RFU GSTM3 (11746129_a_at) / Fold change /veh GSTM3 (11746129_a_at) / RFU IL23R (11737362_x_at) / Fold change /veh IL23R (11737362_x_at) / RFU TMEM51 (11727254_a_at) / Fold change /veh TMEM51 (11727254_a_at) / RFU PIWIL2 (11732686_x_at) / Fold change /veh PIWIL2 (11732686_x_at) / RFU ORM1 (11744905_x_at) / Fold change /veh ORM1 (11744905_x_at) / RFU CCDC152 (11743942_at) / Fold change /veh CCDC152 (11743942_at) / RFU ECM1 (11717891_a_at) / Fold change /veh ECM1 (11717891_a_at) / RFU IL23R (11748794_a_at) / Fold change /veh IL23R (11748794_a_at) / RFU TNFAIP8L3 (11732012_x_at) / Fold change /veh TNFAIP8L3 (11732012_x_at) / RFU MBOAT4 (11741988_at) / Fold change /veh MBOAT4 (11741988_at) / RFU 11764193_at / Fold change /veh 11764193_at / RFU TMEM53 (11763286_at) / Fold change /veh TMEM53 (11763286_at) / RFU MAGEB2 (11727129_at) / Fold change /veh MAGEB2 (11727129_at) / RFU TMEM200A (11744735_a_at) / Fold change /veh TMEM200A (11744735_a_at) / RFU CCDC152 (11751479_a_at) / Fold change /veh CCDC152 (11751479_a_at) / RFU FAM211A (11726209_a_at) / Fold change /veh FAM211A (11726209_a_at) / RFU RGS16 (11746705_a_at) / Fold change /veh RGS16 (11746705_a_at) / RFU VCAN (11755009_s_at) / Fold change /veh VCAN (11755009_s_at) / RFU RHOB (11743442_s_at) / Fold change /veh RHOB (11743442_s_at) / RFU RGS16 (11720943_a_at) / Fold change /veh RGS16 (11720943_a_at) / RFU RGS16 (11720944_at) / Fold change /veh RGS16 (11720944_at) / RFU, VPS4B / Fold change vs veh, VPS4B / RFU, CREB1 / Fold change vs veh, CREB1 / RFU, DNAJC13 / Fold change vs veh, DNAJC13 / RFU, GNAQ / Fold change vs veh, GNAQ / RFU, CDK5R1 / Fold change vs veh, CDK5R1 / RFU, ZRANB3 / Fold change vs veh, ZRANB3 / RFU, CUL4A / Fold change vs veh, CUL4A / RFU, CCNY / Fold change vs veh, CCNY / RFU, UFL1 / Fold change vs veh, UFL1 / RFU, COG3 / Fold change vs veh, COG3 / RFU, DIAPH2 / Fold change vs veh, DIAPH2 / RFU, SKA2 / Fold change vs veh, SKA2 / RFU, AFF3 / Fold change vs veh, AFF3 / RFU, LMF1 / Fold change vs veh, LMF1 / RFU, IPO11 / Fold change vs veh, IPO11 / RFU, DFFB / Fold change vs veh, DFFB / RFU, FOXP1 / Fold change vs veh, FOXP1 / RFU, CARD8 / Fold change vs veh, CARD8 / RFU, STRN3 / Fold change vs veh, STRN3 / RFU, ADK / Fold change vs veh, ADK / RFU, RASSF2 / Fold change vs veh, RASSF2 / RFU, WIPF1 / Fold change vs veh, WIPF1 / RFU, LARP1B / Fold change vs veh, LARP1B / RFU, RASA1 / Fold change vs veh, RASA1 / RFU, RB1 / Fold change vs veh, RB1 / RFU, PPFIA1 / Fold change vs veh, PPFIA1 / RFU, MAT2A / Fold change vs veh, MAT2A / RFU, CCT5 / Fold change vs veh, CCT5 / RFU, WDR92 / Fold change vs veh, WDR92 / RFU, CUX1 / Fold change vs veh, CUX1 / RFU, TTC7A / Fold change vs veh, TTC7A / RFU, TMEM135 / Fold change vs veh, TMEM135 / RFU, DEPTOR / Fold change vs veh, DEPTOR / RFU, CPM / Fold change vs veh, CPM / RFU, DNAJB6 / Fold change vs veh, DNAJB6 / RFU, CACNA2D3 / Fold change vs veh, CACNA2D3 / RFU, DTX4 / Fold change vs veh, DTX4 / RFU, TFCP2 / Fold change vs veh, TFCP2 / RFU, GMCL1 /// GMCL1P1 / Fold change vs veh, GMCL1 /// GMCL1P1 / RFU, AEBP2 / Fold change vs veh, AEBP2 / RFU, SNHG1 /// SNORD22 /// SNORD25 /// SNORD26 /// SNORD27 /// SNORD28 /// SNORD29 /// SNORD31 / Fold change vs veh, SNHG1 /// SNORD22 /// SNORD25 /// SNORD26 /// SNORD27 /// SNORD28 /// SNORD29 /// SNORD31 / Fold change (Aza/veh), C12orf56 (ProbeSet 11735607_a_at) / Fold change (ACY-1035/veh), C12orf56 (ProbeSet 11735607_a_at) / Fold change (Aza/veh), FGFR1OP (ProbeSet 11751329_s_at) / Fold change (ACY-1035/veh), FGFR1OP (ProbeSet 11751329_s_at) / Fold change (Aza/veh), VPS36 (ProbeSet 11739960_a_at) / Fold change (ACY-1035/veh), VPS36 (ProbeSet 11739960_a_at) / RFU SYPL1 (11715823_x_at) / Fold change /veh SYPL1 (11715823_x_at) / RFU IGFBP7 (11715501_s_at) / Fold change /veh IGFBP7 (11715501_s_at) / RFU REEP3 (11722064_at) / Fold change /veh REEP3 (11722064_at) / RFU IGLL1 (11728026_x_at) / Fold change /veh IGLL1 (11728026_x_at): dose or concentration left out as unconfirmed. To be noted: MV-4-11 cells, 48 hours.

Consider `Nc1ccc(-c2cccs2)cc1NC(=O)c1ccc2c(c1)cc(C1CC1)n2CCN1CCOCC1` [ACY-1035], for which the “RFU TMEM136 (11760407_x_at)” value came to 15.13 RFU.
